Measured values from patent publication US20240216458A1, “Composition for the prevention, improvement or treatment of allergic diseases comprising an extract of Cassia mimosoides L. as an active ingredient” (KOREA INSTITUTE OF SCIENCE AND TECHNOLOGY, priority 2022, published 2024).

What was measured:
Type in all cases: cell-based, rat
Details in all cases: compound 20 μM
[1] = tested on: RBL-2H3 mast cells; test: TNF-α production secreted by mast cells (ELISA)
Protocol: (§1) First, RBL-2H3 mast cells were seeded at 2×10^5 cells/well in a 24-well microtiter plate containing Dulbecco's Modified Eagle's Media (DMEM) medium containing 2.5% fetal bovine serum, and cultured until they grew to 80% confluence. Afterwards, ethanol extract of Cassia mimosoides L. prepared in <Example 1> was added to serum-free DMEM medium at a concentration of 20 μg/ml and 40 μg/ml, respectively, and mast cells were cultured for 24 hours. After treating mast cells with DNP-BSA for 30 minutes, the cell culture fluid was collected, centrifuged, and only the supernatant was harvested. The amount of TNF-α in the supernatant was confirmed using an ELISA kit (Invitrogen, USA).
Mast cells were cultured in the same manner as in Example 4, and then treated with 17 compounds isolated in Example 12 at a concentration of 20 μM, respectively.

[2] = tested on: RBL-2H3 mast cells; test: Histamine production secreted by mast cells (EIA kit)
Protocol: as §1, with “histamine” for “TNF-α”, “EIA” for “ELISA”, “(Bertin Pharma, France).” for “(Invitrogen, USA).”
Mast cells were cultured in the same manner as in Example 3, and then treated with 17 compounds isolated in Example 12 at a concentration of 20 μM, respectively.

[3] = tested on: RBL-2H3 mast cells; test: Secretion of allergens in mast cell granules (beta-hexosaminidase activity, degranulation) after DNP-BSA stimulation
Protocol: First, rat basophilic leukocyte (RBL-2H3, American Type Culture Collection, USA) mast cells were cultured in minimal medium containing antibiotics and 10% bovine serum. After culturing, the cells were collected with trypsin, placed in a 24-well microtiter plate at 2×10^5 cells/well, and cultured until they grew to 80% confluence. The medium was replaced with PIPES buffer (25 mM PIPES, PH 7.2, 159 mM NaCl, 5 mM KCl, 0.4 mM MgCl2, 1 mM CaCl2), 5.6 mM glucose, and 0.1% BSA) for the cultured cells, and then ethanol extract of Cassia mimosoides L. prepared in <Example 1> was added to concentrations of 20 μg/ml and 40 μg/ml, respectively, and cultured for 1 hour. […]
The degree of secretion of allergy-inducing substances was determined by measuring the activity of beta-hexosaminidase, a marker of degranulation secreted in the medium, and the activity of beta-hexosaminidase was determined as the amount of p-nitrophenol liberated from p-nitrophenyl-acetyl-β-D-glucosaminide (Funaba M. et al., Cell Biol. Int., 27:879-85, 2003). […]
The degree of allergen secretion was determined by measuring the activity of β-hexosaminidase, a marker of degranulation, which was secreted in the medium, and the activity of β-hexosaminidase was determined as the amount of p-nitrophenyl liberated from p-nitrophenyl-acetyl-β-D-glucosaminide (Funaba M. et al, Cell Biol. Int., 27:879-85, 2003). […]

[4] = tested on: RBL-2H3 mast cells; test: Interleukin-4 production secreted by mast cells (ELISA)
Protocol: as §1, with “interleukin-4” for “TNF-α”
Mast cells were cultured in the same manner as in Example 5, and then treated with 17 compounds isolated in Example 12 at a concentration of 20 μM, respectively.

[5] = tested on: RBL-2H3 mast cells; test: Prostaglandin E2 production secreted by mast cells (ELISA)
Protocol: as §1, with “prostaglandin E2” for “TNF-α”, “(R&D systems,” for “(Invitrogen,”
Mast cells were cultured in the same manner as in Example 6, and then treated with 17 compounds isolated in Example 12 at a concentration of 20 μM, respectively.

Oc1ccc2c(c1)OC(c1ccc(O)c(O)c1)C[C@H]2c1c(O)cc(O)c2c1OC(c1ccc(O)c(O)c1)[C@@H](O)C2 (stereo partly drawn) [KA-1, (2S)-3′,4′,7-trihydroxyflavan-(4 β - >8)-catechin]
excellent efficacy: production of TNF-α secreted by mast cells [1] | production of histamine secreted by mast cells [2] | mast cell degranulation [3] | production of interleukin-4 secreted by mast cells [4] | production of prostaglandin E2 secreted by mast cells [5]

Oc1ccc2c(c1)OC(c1ccc(O)c(O)c1)CC2c1c(O)cc(O)c2c1OC(c1ccc(O)c(O)c1)[C@@H](O)C2 (stereo partly drawn) [KA-2, (2S)-3′,4′,7-trihydroxyflavan-(4 α - >8)-catechin]
excellent efficacy: production of TNF-α secreted by mast cells [1] | production of histamine secreted by mast cells [2] | mast cell degranulation [3] | production of interleukin-4 secreted by mast cells [4] | production of prostaglandin E2 secreted by mast cells [5]
